Measurements from US6962909B2, “Treatment of neovascularization disorders with squalimine” (Genaera Corporation, priority 1995, dated 2005).
Values after ≈ are worked out from the molar mass of the structure shown.

What was measured:
[1] = test system: vitelline capillaries of 3- to 5-day chick embryo; experiment: Chick embryo vitelline capillary regression assay; format: in vivo; design: key to Vascular reactivity (capillary regression): + = Vascular reactivity; 0 = No vascular reactivity; +/− = Equivocal reactivity; details: 60 minutes
Protocol: Using the chick embryo vitelline capillaries assay, compounds were tested for their ability to induce capillary regression. Each compound was applied in 0.1 ml of 15% Ficol 400 and PBS onto the embryo, and vascular regression was assessed after 60 minutes.
The 3-day chick embryo consists of an embryonic disc from which numerous vessels emerge and return, forming a “figure 8”-shaped structure—the embryo in the center with vascular loops extending outward over both poles. […] Following a lag period of around 15 minutes, the constriction of continuity between capillary and secondary vessels, generally on the “venous” side, was observed. Continued pulsatile blood flow progressed, resulting in a “swelling” of the blind tube, followed by a pinching off of the remaining connection and formation of an enclosed vascular sac resembling a “blood island.” This process progressed until only the largest vessels remained intact.

[2] = test system: Stage 59-60 Xenopus tadpoles; experiment: Xenopus tadpole assay; format: in vivo, Xenopus laevis; details: 10 μg/ml in water
Description: A newly developed assay employing tadpoles, preferably Xenopus laevis Stages 59-60, were employed to study the effect of a compound by monitoring capillary occlusion in the tadpole's tail. […] The compounds of the invention affect the shape, viability and integrity of the embryonic tissues while not affecting the adult tissues, providing a powerful, highly specific screen. For example, substances that destroy all of the animal's epithelium, both adult and embryonic, could be regarded as toxic.
In this assay, tadpoles are introduced into Petri dishes containing a solution of the test compound in distilled water, preferably about 100 ml. The preferred concentration of the test compound is from about 1 μg/ml to about 10 μg/ml. The volume of liquid is sufficient for the animal to swim freely and drink from the solution. Thus, the effect observed results from oral absorption and subsequent systemic distribution of the agent. If the volume of liquid is not sufficient to permit oral intake, the effects that are observed would result from absorption through the surface epithelium. Thus, this simple assay can identify if an compound has characteristics of oral availability.
After an amount of time, typically about 60 minutes, the occlusion of blood flow through capillaries in the tadpole's tail are observed under an inverted microscope at a magnification of roughly 100×.
The tadpole assay described above provides an advantageous way to determine the pharmacological targets of each steroid when introduced into a mammal, and to determine pharmacological categories into which synthetic compounds belong. In the assay, each of the steroids was dissolved in 100 ml of distilled water at a concentration of 10 μg/ml. Stage 59-60 Xenopus tadpoles were introduced and evaluated by light microscopy and gross observation 1 hour later.

S. aureus = experiment: Antibiotic activity, MIC; format: cell-based; details: Staphylococcus aureus
E. coli = experiment: Antibiotic activity, MIC; format: cell-based; details: Escherichia coli
P. aerug = experiment: Antibiotic activity, MIC
C. albicans = experiment: Antibiotic activity, MIC; details: Candida albicans
[3] = test system: human microvascular cells; experiment: Endothelial cord formation assay; format: cell-based; note: key: + = Inhibition of angiogenesis; − = No inhibition of angiogenesis; T = Toxic; *= cell rounding @ 10 µg/ml
Description: Endothelial cells have the capacity in vitro to form tubular aggregates resembling capillaries in various early stages of formation. This conversion occurs under relatively specific conditions, in which essential growth factors along with an effective substratum are provided. It has been shown that both the interaction of growth factors with the endothelial cell and its attachment to a substratum activate the NHE. The activation of this exchanger is believed to be required for subsequent morphologic transformation of the endothelial cell into a multicellular tubular structure.
To assess the effect of compounds on the cord-like structures formed by human microvascular cells when plated in the presence of VGEF (Vascular Endothelial Growth Factor) and basic fibroblast growth factor on a collagen matrix, a standard cord formation assay was used.

`CC(C)CCCC(C)[C@H]1CCC2C3C(CC[C@@]21C)[C@@]1(C)CC[C@H](NCCCNCCCCN)C[C@@H]1C[C@H]3O` (stereo partly shown) [Compound 371] was tested, and the “Vascular reactivity (capillary regression)” value (“Vascular reactivity” below) ([1]; 0.001 μg applied) was 0, the “Vascular reactivity” value ([1]; 0.01 μg applied) was 0 and the “Vascular reactivity” value ([1]; 0.1 μg applied) was 0. For the same compound, the “Vascular reactivity” value ([1]; 1 μg applied) was “+/−”, the “Vascular reactivity” value ([1]; 10 μg applied) was “+” and the “Pharmacological category in tadpole assay (similarity to a reference steroid)” value (“Pharmacological category” for short) [2] was “effects like those produced by compound 1436”.
With `CC(C)C(CCC(C)[C@H]1CCC2C3C(CC[C@@]21C)[C@@]1(C)CC[C@@H](NCCCNCCCCN)C[C@@H]1C[C@H]3O)OS(=O)(=O)O` (stereo partly shown) the MIC (S. aureus) was 2 to 4 µg/mL (≈ 3.18 to 6.37 µM), the MIC (E. coli) was 4 to 8 µg/mL (≈ 6.37 to 12.7 µM) and the MIC (P. aerug) was 16 µg/mL (≈ 25.5 µM). The MIC (C. albicans) was 16 µg/mL (≈ 25.5 µM).
With `COC(=O)CCC(C)[C@H]1CCC2C3C(CC[C@@]21C)[C@@]1(C)CC[C@H](NCCN)C[C@H]1C[C@H]3O` (stereo partly shown) [Compound 409] the “Vascular reactivity” value ([1]; 1 μg applied) was 0 and the “Pharmacological category” value [2] was “functionally similar to compound 1437”.
`CC(C)CCCC(C)[C@H]1CCC2C3CC[C@H]4C[C@H](NCCCN5CCCCN=C5N)CC[C@]4(C)C3CC[C@@]21C` (stereo partly shown) gave an MIC (S. aureus) of 2 µg/mL (≈ 3.7 µM), an MIC (E. coli) greater than 256 µg/mL and an MIC (P. aerug) greater than 256 µg/mL. It also gave an MIC (C. albicans) of 32 µg/mL (≈ 59.2 µM).
`CC(CCC(=O)O)[C@H]1CCC2C3CC[C@H]4C[C@H](NCCCNCCCCN)CC[C@]4(C)C3CC[C@@]21C` (stereo partly shown) was tested, and the MIC (S. aureus) was 128 µg/mL (≈ 254 µM), the MIC (E. coli) was 32 µg/mL (≈ 63.5 µM) and the MIC (P. aerug) was 64 µg/mL (≈ 127 µM). The MIC (C. albicans) was greater than 256 µg/mL.
With `COC(=O)CCC(C)[C@H]1CCC2C3C(CC[C@@]21C)[C@@]1(C)CC[C@@H](NCCN)C[C@H]1C[C@H]3O` (stereo partly shown) [Compound 410] the “Effect on endothelial cord formation” value ([3]; 0.1 μg/ml) was “−”, the “Effect on endothelial cord formation” value ([3]; 1.0 μg/ml) was “+” and the “Vascular reactivity” value ([1]; 0.001 μg applied) was 0. The “Vascular reactivity” value ([1]; 0.01 μg applied) was “+/−”, the “Vascular reactivity” value ([1]; 0.1 μg applied) was “+/−” and the “Vascular reactivity” value ([1]; 1 μg applied) was “+”. For the same compound, the “Pharmacological category” value [2] was “functionally similar to compound 1437”.
Work on `C=C(C)C(=O)CCC(C)[C@H]1CCC2C3C(CC[C@@]21C)[C@@]1(C)CC[C@H](NCCCNCCCCN)C[C@@H]1C[C@H]3O` (stereo partly shown) yielded an MIC (S. aureus) of 4 µg/mL (≈ 7.35 µM), an MIC (E. coli) of 32 µg/mL (≈ 58.8 µM) and an MIC (P. aerug) of 128 µg/mL (≈ 235 µM).
With `CC(CCC(=O)O)[C@H]1CCC2C3C(CC[C@@]21C)[C@@]1(C)CC[C@@H](NCCCNCCCCNCCCN)C[C@H]1C[C@H]3O` (stereo partly shown) [Compound 412] the “Effect on endothelial cord formation” value ([3]; 0.1 μg/ml) was “−”, the “Effect on endothelial cord formation” value ([3]; 1.0 μg/ml) was “−” and the “Effect on endothelial cord formation” value ([3]; 10.0 μg/ml) was “+”. The “Vascular reactivity” value ([1]; 0.001 μg applied) was 0, the “Vascular reactivity” value ([1]; 0.01 μg applied) was 0 and the “Vascular reactivity” value ([1]; 0.1 μg applied) was 0. For the same compound, the “Vascular reactivity” value ([1]; 1 μg applied) was “+” and the “Pharmacological category” value [2] was “pharmacologic activity similar to that seen for FX 3”.
For `COC(=O)CCC(C)[C@H]1CCC2C3C[C@@H](O)[C@H]4C[C@@H](NCCN)CC[C@]4(C)C3CC[C@@]21C` (stereo partly shown) [Compound 432], the “Effect on endothelial cord formation” value ([3]; 1.0 μg/ml) was “−”, the “Effect on endothelial cord formation” value ([3]; 10.0 μg/ml) was “−” and the “Pharmacological category” value [2] was “functionally similar to compound 1437”.
`COC(=O)CCC(C)[C@H]1CCC2C3C[C@@H](O)[C@H]4C[C@H](NCCCNCCCCNCCCN)CC[C@]4(C)C3CC[C@@]21C` (stereo partly shown) [Compound 465] was tested, and the “Pharmacological category” value [2] was “pharmacologic activity similar to that seen for FX 3”.
In the case of `CC(CCC(=O)O)[C@H]1CCC2C3C(CC[C@@]21C)[C@@]1(C)CC[C@@H](NCCN)C[C@H]1C[C@H]3O` (stereo partly shown) [Compound 414], the “Vascular reactivity” value ([1]; 1 μg applied) is reported as 0 and the “Pharmacological category” value [2] is reported as “pharmacologic activity similar to Fraction 1”.
With `CC(CCC(=O)O)[C@H]1CCC2C3C(CC[C@@]21C)[C@@]1(C)CC[C@H](NCCCNCCCCNCCCN)C[C@H]1C[C@H]3O` (stereo partly shown) [Compound 413] the “Effect on endothelial cord formation” value ([3]; 0.1 μg/ml) was “−”, the “Effect on endothelial cord formation” value ([3]; 1.0 μg/ml) was “−” and the “Effect on endothelial cord formation” value ([3]; 10.0 μg/ml) was “+”. The “Vascular reactivity” value ([1]; 1 μg applied) was 0 and the “Pharmacological category” value [2] was “effects like those produced by compound 1436”.
`CC(C)CCCC(C)[C@H]1CCC2C3C(CC[C@@]21C)[C@@]1(C)CC[C@@H](N)C[C@@H]1C[C@H]3O` (stereo partly shown) gave an MIC (S. aureus) of 2 µg/mL (≈ 4.95 µM), an MIC (E. coli) greater than 256 µg/mL and an MIC (P. aerug) greater than 256 µg/mL.
